Patent US9783550B2, “Highly potent inhibitors of porcupine” (The Board of Regents of the University of Texas System, priority 2013, dated 2017)
Entries after “also recorded” stand apart in the source; their conditions may differ. Blank lines part the entries; values can stand above or below the compound they belong to.

Key:
[1] = system: Wnt mediated branching morphogenesis in cultured embryonic kidneys; details: cultured mouse embryonic kidneys; cited from earlier work
[2] = system: regeneration of the tailfin (Wnt-dependent process); details: adult and juvenile fish, previously shown; cited from earlier work
[3] = system: cell-autonomous Wnt signaling in mouse fibroblasts (L cells); experiment: Wnt signaling / Porcn-inhibiting activity, EC50 in mouse fibroblasts (L cells); format: cell-based
Source text: The four IWP lead compounds (1-4) were identified in the initial screen of 200,000 compounds (ChemDiv, ChemBridge, ComGenex, Prestwick and TimTek libraries) bear similar molecular skeletons (FIG. 1). […] The phthalazinone moiety of IWP-1 (1) and pyrimidinone moiety of IWP-2-4 (2-4) can be considered to be exchangeable scaffolding motifs for the compounds. The benzothiazole moiety appears to be a conserved motif and the phenyl group tolerates both electronic and steric perturbations.
While there is only 69% sequence identity between mouse Porcn and zebrafish Porcn, the in vitro EC50 values (FIG. 3) measured in mouse fibroblasts (L cells) correlate with the in vivo activity observed in fish but not linearly.

Relative solubility = format: physicochemical
[4] = system: phosphorylation of dishevelled 2 (Dv12) in HEK293 cells; experiment: Phosphorylation of dishevelled 2 in HEK293 cells (gel electrophoresis); format: cell-based
Source text: FIG. 4—The Porcn inhibitor, IWP-L6 (FIG. 3 Compound 27), blocks the phosphorylation of the cytoplasmic Wnt pathway effector Dv12 shown through gel electrophoresis.
Among the five newly identified sub-nanomolar IWPs, compound 27 was selected for further biological evaluations and named IWP-L6. […] The in vivo stability of IWP-L6 (27) (FIG. 5) was further profiled. […] The major metabolites are the amide cleavage products. Similar species-dependent metabolitic profiles due to the involvement of carboxylesterase (CES) have been reported with other drug candidates (Eng, et al., 2010; Liu, et al., 2011) These observations are consistent with the elevated activity of CES in mouse and rat but not human (Berry, et al., 2009; Rudakova, et al., 2011; Bahar, et al., 2012).

[5] = Plasma metabolism assay, human plasma; format: in vitro ADME; details: over 24 h; 2 μM, 37° C.
Experimental: (§1) Plasma Metabolism Assay: Murine, rat, and human plasma, collected using acidified citrate dextrose (ACD) anticoagulant, were purchased from Bioreclamation (Westbury, N.Y.). IWP-L6 (27) was added to 1 mL of each plasma at a final concentration of 2 μM, the material was aliquoted into eppendorf tubes, and then incubated for the indicated time points in a 37° C. water bath. At each time point, an aliquot was removed and protein precipitated and compound extracted and analyzed as described above.

[6] = Plasma metabolism assay, rat plasma; format: in vitro ADME
Experimental: as §1

[7] = Plasma metabolism assay, murine plasma; format: in vitro ADME, mouse
Experimental: as §1

[8] = S9 metabolism assay, murine liver S9 fractions; format: in vitro ADME, mouse; details: 2 μM, 37° C., NADPH-regenerating system
Experimental: S9 Metabolism Assay: Male ICR/CD-1 mouse S9 fractions were purchased from Celsis/In Vitro Technologies (Baltimore, Md.). 50 μL (1 mg) of S9 protein was added to a 15 mL glass screw cap tube. 700 μL of a 50 mM Tris, pH 7.5 solution, containing the compound of interest was added on ice. The final concentration of compound after addition of all reagents was 2 μM. 250 μL of an NADPH-regenerating system (1.7 mg/mL NADP, 7.8 mg/mL glucose-6-phosphate, 6 U/mL glucose-6-phosphate dehydrogenase in 2% w/v NaHCO3/10 mM MgCl2) was added and the tube placed in a 37° C. shaking water bath. At varying time points after addition of phase I cofactors, the reaction was stopped by the addition of 1 mL of methanol containing an internal standard compound, n-benzylbenzamide, and formic acid. The samples were incubated 10 min at room temperature and then spun once at 975×g in the glass tube. The supernatant was spun a second time at 16,000×g for 5 min in a microcentrifuge. The supernatant was analyzed by LC-MS/MS. Analytical methods were developed for each compound using an AB SCIEX 3200-QTrap, a combination triple quadrupole/ion trap instrument. Compound transitions utilized for quantitation were as follows: IWP-L6 (27): 473.2 to 303.1; aniline: 171.2 to 127.0; n-benzylbenzamide (internal standard): 212.1 to 91.1. […]

[9] = system: regeneration of the tailfin (Wnt-dependent process); experiment: Zebrafish tailfin regeneration; format: in vivo
Source text: Achieving transient repression of pathological Wnt response without incurring permanent damage to normal stem cell function is a key anticancer therapeutic goal.

[10] = system: posterior axis formation (Wnt/β-catenin dependent developmental process); experiment: Zebrafish posterior axis formation assay; format: in vivo; details: zebrafish embryos, low micromolar concentrations, FIG. 7
Experimental: Zebrafish embryos harboring a mCherry-based reporter of Wnt/β-catenin signaling (Moro, et al., 2012) were treated with increasing concentrations of IWP-L6 (FIG. 3 Compound 27) in the aquarium water. Fluorescence intensity of animals was quantified as before (Dodge et al., 2012). (FIG. 7B) Activity of the IWP compounds IWP-L6 (Compound 27), 30, 32, and 35 was measured using the posterior axis formation assay.

[11] = system: Wnt mediated branching morphogenesis in cultured embryonic kidneys; experiment: Branching morphogenesis in cultured mouse embryonic kidneys; format: cell-based
Experimental: FIGS. 8A-B—(FIG. 8A) IWP-L6 (Compound 27) inhibits Wnt mediated branching morphogenesis in cultured embryonic kidneys. Hoxb7Cre; RosaTomato kidneys were dissected from E11.5 embryos and cultured at the air/media interface (Dodge, et al., 2012; Kamer, et al., 2010) Media was replaced every 24 hours. Images were captured every 24 hours using a Zeiss Lumar V12 fluorescent stereoscope. Magnitude: 80× at 0 hours and 24 hours; 60× at 48 hours. (FIG. 8B) The fold increase in the number of ureteric bud tips between time=0 and 48 hours for each treatment was quantified. Statistics were performed using Student T-test.
IWP2 (2) has been previously shown to specifically and reversibly block Wnt signaling and Wnt mediated branching morphogenesis in cultured mouse embryonic kidneys (Kamer, et al., 2010; Dodge, et al., 2012, which are incorporated by reference herein). […] Embryonic day (E) 11.5 kidneys in media containing various doses (1 nM to 1 μM) of IWP-L6 (27) were cultured. […] In comparison, a dose of 5 μM of IWP-2 (2) was required to obtain similar results (Dodge, et al., 2012; Karner, et al., 2010).

SMILES: Cc1ccc2nc(NC(=O)CSc3nc4c(c(=O)n3-c3ccccc3)SCC4)sc2c1 [IWP-2]
dose required to obtain similar results (block of branching morphogenesis) [1]: 5 µM

SMILES: Cc1ccc2nc(NC(=O)CSc3nc4c(c(=O)n3C)SC(C)C4)sc2c1 (centres unmarked) [IWP-12]
block of tailfin regeneration [2]: effectively block

solubility relative to IWP-2 (2) and 20 (Relative solubility): more soluble | t1/2 in rat plasma ([6]; 2 μM, 37° C.): 190 min | degradation in rat plasma (in words) ([6]; as a function of time, FIG. 5): much more significant degradation | t1/2 in murine plasma ([7]; 2 μM, 37° C.): 2 min | degradation in mouse plasma (in words) ([7]; as a function of time, FIG. 5): much more significant degradation | t1/2 in murine liver S9 fractions [8]: 26 min
SMILES: O=C(CSc1nc2c(c(=O)n1-c1ccccc1)SCC2)Nc1ccc(-c2ccccc2)cn1 [IWP-L6]
EC50 (in words) [3]: sub-nanomolar | Porcn-inhibiting activity (in words) ([3]; general structure C, FIG. 3 series): slight improvement of activity | suppression of phosphorylation of dishevelled 2 (Dv12) [4]: effectively suppressed; also recorded: blocks | stability in human plasma [5]: stable; also recorded: little degradation | fin regeneration after chemical removal ([9]; resected caudal fins, 7 d in water containing compound, then removal): nearly normal levels | inhibition of tailfin regeneration (comparison in words) ([9]; zebrafish, FIG. 6): more potent activity; also recorded: more significant | inhibition of posterior axis formation [10]: effectively inhibit; also recorded: inhibits | dose that completely blocked branching morphogenesis ([11]; E11.5 kidneys): ≥ 50 nM | dose that significantly reduced branching morphogenesis ([11]; E11.5 kidneys, relative to DMSO treated controls): ≥ 10 nM | inhibition of Wnt mediated branching morphogenesis (in words) ([11]; FIG. 8A): inhibits | potency relative to IWP-2 (2) ([11]; cultured E11.5 mouse kidneys): at least 100 times

SMILES: O=C(Nc1cccc2cccnc12)c1ccc(N2C(=O)[C@@H]3[C@H](C2=O)[C@@H]2C=C[C@H]3C2)cc1 [IWR-1]
block of tailfin regeneration [2]: effectively block
